The text below walks through data of article PMC11069232, “NB compounds are potent and efficacious FOXM1 inhibitors in high-grade serous ovarian cancer cells” (Journal of Ovarian Research, 2024).

Format in all cases: cell-based, human
For test [1], the system named is FOXM1 targets (CCNB1, PLK1, AURKB, CDC25B). Nature of the test: Western blot of FOXM1 target proteins in HGSOC cells. The settings on record: CAOV3 and OVCAR4; low micromolar treatments. As for the experimental part: Whole cell proteins were extracted using radio-immunoprecipitation assay (RIPA) buffer (1X PBS, 1% NP-40, 0.5% sodium deoxycholate, 0.1% sodium dodecyl sulfate [SDS]) supplemented with protease and phosphatase inhibitors (Sigma-Aldrich). Briefly, media was removed from cells, cells were washed in ice cold PBS, and cells were lysed for 15 min in RIPA buffer, collected from the plate, and sonicated. The resulting extracts were centrifuged at 4 °C for 10 min at 16,100 × g to remove cell debris. In some cases (e.g., when measuring apoptotic markers such as cleaved PARP) floating cells were isolated in parallel and combined with the remainder of the cell sample prior to protein extraction. Protein concentrations were determined using the Pierce™ BCA Protein Assay Kit (Fisher Scientific, Waltham, MA, USA).
Equivalent amounts of protein per well, as determined by BCA assays, were loaded into Invitrogen™ NuPAGE™ 4–12%, Bis–Tris, 1.5 mm, mini protein gels (Fisher Scientific) or 7.5% Mini-Protein TGX precast protein gels (Bio-Rad, Hercules, CA, USA), and subsequently transferred to 0.45 µm polyvinylidene difluoride (PVDF) membranes (Millipore Sigma, St. Louis, MO, USA), using a wet transfer system. […] Quantification of protein expression was performed using Fiji software.

The test system of test [2] is CAOV3 cells. Briefly: Caspase-3/7 activity assay, CAOV3. The note with it: 24 h. As for the experimental part:
(§1) Cells were seeded into 6-well plates and treated with the designated compounds until the desired time point. Floating cells and trypsinized cells from the wells were collected, centrifuged at 500 × g, and washed with PBS. Cells were prepared using the Muse® Caspase-3/7 Kit (Luminex Corporation, Austin, TX, USA) according to the manufacturer’s instructions. Cells were analyzed by flow cytometry using the Guava® Muse® Cell Analyzer (Luminex Corporation).

In test [3] the test system is OVCAR4 cells. Nature of the test: CyQuant cell viability assay, OVCAR4. The settings on record: OVCAR4; for IC50: CyQuant. As to the method:
(§2) Cells were seeded into 96-well plates and treated with serial dilutions with the designated compounds for 72 h. Medium was then removed from the wells, and the cells were frozen at -80 °C for storage. After thawing, cell viability was analyzed using the CyQUANT™ Cell Proliferation Assay for cells in culture (Invitrogen, ThermoFisher Scientific, Waltham, MA, USA), according to manufacturer’s instructions. The CyQuant assay utilizes a DNA binding fluorescent dye, and the signal is proportional to the number of live cells, which thus reflects the effect of drug treatment on both cell proliferation and cytotoxicity. To integrate these two measures (proliferation and cytotoxicity) into one simple term, we refer to CyQuant data as a measure of cell viability. Fluorescence intensity was measured using POLARstar OPTIMA microplate multi-detection plate reader (BMG LabTech, Cary, NC, USA) with settings specified by the manufacturer’s instructions.

The subject of test [4] is FT282-C11 cells. Nature of the test: Caspase-3/7 activity assay, FT282-C11. The note with it: 24 h. As for the experimental part: as §1
For test [5], the system named is OVCAR4 cells. Briefly: Caspase-3/7 activity assay, OVCAR4. The settings on record: 24 h. As to the method: as §1
For test [6], the system named is CAOV3 cells. Briefly: Incucyte kinetic analysis of live and dead cells. The settings on record: 0.1 μM. As to the method: CAOV3 cells were seeded into 96-well plates in DMEM media containing Incucyte Nuclight Rapid Red Dye (Sartorius, Bohemia, NY, USA, Cat #4717) 1:1,000 (for live cell nuclear labeling) and Incucyte Cytotox Green Dye (Sartorius Cat #4633) 250 μM (for counting of dead cells). The following day, cells were treated with DMSO or NB compounds at 0.1, 0.5 or 1.0 μM concentrations. After treatment, cells were incubated in a Incucyte S3 time lapse imager (Sartorius). We obtained 5 pictures per well every 2 h, for a total of 72 h. Data were analyzed and plotted using Incucyte Live-cell Imaging and Analysis software.

The subject of test [7] is CAOV3 cells. Nature of the test: CyQuant cell viability assay, CAOV3. The settings on record: CAOV3; for IC50: CyQuant. As for the experimental part:
as §2

Test [8] relates to FT282-C11 cells. Nature of the test: CyQuant cell viability assay, FT282-C11 (immortalized FTE control). As to the method:
as §2
To investigate the cancer cell selectivity of FOXM1 inhibitors, we utilized the immortalized (FTE) cell line FT282-C11 as non-malignant, cell of origin matched control. […] We tested a sub-set of FOXM1 inhibitors, including the three NB compounds and the two most widely used FOXM1 inhibitors, thiostrepton and FDI-6.

Test [9] relates to CAOV3 cells. Nature of the test: Drug washout study, CyQuant cell viability. The note with it: Fig. 7E-F. As for the experimental part:
as §2
To assess FOXM1 protein expression, cells were seeded into 6-well plates and treated with DMSO or NB compounds the next day. At 3- or 6-h post-treatment, media was aspirated and cells were washed with PBS and incubated with drug-free media until reaching 24, 48, or 72 h post the initial treatment. At time points post-treatment, protein was isolated from washout and no washout (i.e., continuous treatment) treatment conditions and used for western blotting. To assess the effects of drug washout on cell viability, cells were seeded in 96-well plates, treated as described above, and cell viability was assessed at 72 h post the initial treatment using CyQuant assays.

[10] abbreviates: % loss of cell viability at maximum tested concentration, Table 4.
[11] abbreviates: % loss of cell viability at the maximum tested drug concentration (printed in parentheses in the cell), Table 3.
Where [12] appears, read: cell viability, 72 h, Table 3, read-out: Potency [IC50 (µM)].

Like-named read-outs stand apart in the source and are kept apart here.

As for `CC[N+](C)(CC)CCCCCCOc1ccc(C(c2ccc(OCCCCCC[N+](C)(CC)CC)cc2)=C2C3C[C@H]4C[C@@H](C3)C[C@H]2C4)cc1` [NB-115], the “FOXM1 targets at the protein level” value in [1] is reported as “suppressed FOXM1 targets at the protein level”. In addition, the figures for the “caspase 3/7 activity” value in the test on CAOV3 cells [2], in the test on FT282-C11 cells [4] and in the test on OVCAR4 cells [5] were “robust increase in caspase 3/7 activity”, “but not in FT282-C11 cells” and “robust increase in caspase 3/7 activity”, respectively. In addition, the Efficacy in the test on OVCAR4 cells [3] (setting [10]) stood at 85%; in the test on CAOV3 cells [7] (setting [10]) it was 100%; with FT282-C11 cells [8] (FT282-C11, % loss of cell viability at maximum tested concentration, Table 4), 100%. The “% Efficacy (maximum dose)” value with OVCAR4 cells [3] (setting [11]) is 85% (10 μM); in the test on CAOV3 cells [7] (setting [11]), 100% (10 μM). In addition, the IC50 came to 0.56 µM in the test on OVCAR4 cells [3] (Table 4, read-out: IC50); 0.56 µM with OVCAR4 cells [3] (setting [12]); 0.49 µM with CAOV3 cells [7] (Table 4, read-out: IC50); 0.49 µM in the test on CAOV3 cells [7] (setting [12]); 3.8 µM in the test with FT282-C11 cells [8] (FT282-C11, CyQuant, Table 4, read-out: IC50); 830 nM in the test with CAOV3 cells [9] (continuous drug exposure 72 h, viability at 72 h, read-out: IC50 (CAOV3), no washout (72h)). In addition, the IC50 in the test on CAOV3 cells [9] (washout after 3 h, viability at 72 h post initial treatment, read-out: IC50 (CAOV3), 3 h drug exposure then washout (3h)) is 2150 nM; in the test with CAOV3 cells [9] (washout after 6 h, viability at 72 h post initial treatment, read-out: IC50 (CAOV3), 6 h drug exposure then washout (6h)) it was 2300 nM. Further, the “cell proliferation compared to the DMSO control” value with CAOV3 cells [6] is listed as “increased proliferation”. The “selectivity for HGSOC cells” value in the test on FT282-C11 cells [8] (HGSOC cells vs FT282-C11, summary of Table 4) is “approximately tenfold”. For the same molecule, the “Fold HGSOC cell selectivity” value in the test on FT282-C11 cells [8] (IC50 in FT282-C11 divided by the averaged IC50 values of CAOV3 and OVCAR4 cells) stood at 7.2.
